From patent US7605241B2, “Synthesis of inhibitors of p90Rsk” (University of Virginia Patent Foundation, priority 2005, dated 2009)

What was measured:
MEK = details: upstream kinase; cited from earlier work
PKC = details: upstream kinase; cited from earlier work
Raf = details: upstream kinase; cited from earlier work
p90 RSK = p90 RSK (Homo sapiens, UniProt P51812); assay: inhibition of the kinase activity of p90 RSK (Table 1); assay type: biochemical
Excerpt: Methods for testing the ability of SL0101, and analogs and derivatives thereof, synthesized according to the methods disclosed herein, to inhibit p90 ribosomal S6 kinase (RSK) activity and cellular and metabolic processes downstream from RSK activity, are known to those of ordinary skill in the art. Some specific assays are provided in citation number 5 (Smith et al., Cancer Res., 2005, 65:1027), which is incorporated by reference in its entirety. The assays include various kinase assays, cell cycle analysis, gene silencing, and analysis of cells and tissues in vitro and in vivo.
Some specific assays are provided in citation number 5 (Smith et al., Cancer Res., 2005, 65:1027), which is incorporated by reference in its entirety.

Chain of p90 RSK (P51812 whole entry): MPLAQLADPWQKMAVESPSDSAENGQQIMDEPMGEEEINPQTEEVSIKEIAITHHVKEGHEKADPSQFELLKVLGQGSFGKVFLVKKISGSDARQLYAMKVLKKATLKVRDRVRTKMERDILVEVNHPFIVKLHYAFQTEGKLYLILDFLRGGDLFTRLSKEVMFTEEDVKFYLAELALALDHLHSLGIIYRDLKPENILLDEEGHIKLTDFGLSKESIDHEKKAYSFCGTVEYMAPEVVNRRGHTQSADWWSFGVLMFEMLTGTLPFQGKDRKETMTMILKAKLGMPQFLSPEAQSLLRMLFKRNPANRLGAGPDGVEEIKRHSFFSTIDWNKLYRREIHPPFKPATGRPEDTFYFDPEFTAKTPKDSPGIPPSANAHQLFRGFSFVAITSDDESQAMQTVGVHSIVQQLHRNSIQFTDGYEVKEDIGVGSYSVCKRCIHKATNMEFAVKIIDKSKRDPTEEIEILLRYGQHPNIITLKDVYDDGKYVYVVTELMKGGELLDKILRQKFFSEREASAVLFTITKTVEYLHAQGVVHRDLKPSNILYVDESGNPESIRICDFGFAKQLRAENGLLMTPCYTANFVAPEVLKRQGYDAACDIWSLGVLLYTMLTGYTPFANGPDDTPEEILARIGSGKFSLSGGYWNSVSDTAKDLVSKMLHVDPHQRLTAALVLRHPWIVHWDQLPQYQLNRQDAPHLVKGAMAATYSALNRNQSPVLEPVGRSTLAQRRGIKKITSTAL

| SMILES | inhibition of MEK (MEK) | inhibition of PKC (PKC) | inhibition of Raf (Raf) | IC50 (p90 RSK) |
| --- | --- | --- | --- | --- |
| CC(=O)OC1C(C)OC(Oc2c(-c3ccc(O)cc3)oc3cc(O)cc(O)c3c2=O)C(O)C1OC(C)=O (centres unmarked) [SL0101-1] | not to inhibit | not to inhibit | not to inhibit | – |
| CC(=O)OC1C(C)OC(Oc2c(-c3ccc(O)cc3)oc3cc(O)cc(O)c3c2=O)C(O)C1O (centres unmarked) [SL0101-2] | – | – | – | 0.189 µM |
| CC(=O)OC1C(C)OC(Oc2c(-c3ccc(O)cc3)oc3cc(O)cc(O)c3c2=O)C(OC(C)=O)C1O (centres unmarked) [SL0101-3] | – | – | – | 0.58 µM |
